Consider 61 molecules from patent publication US20050009840A1 (SUGEN, INC., priority 2003, published 2005).

The target of the experiment is T1, HGFR (Homo sapiens, UniProt P08581).
T1 construct: purchased Upstate 14-526
Put plainly: HGFR continuous-coupled spectrophotometric assay. In kind it is biochemical. The note with it: for inhibition at 1 pM / inhibition at 1 µM: read-out: % Inhibition (percent c-MET inhibition); for inhibition at 0.05 µM: at 50 nM, Table 5, library procedure 40, read-out: % inhibition (percent c-MET inhibition); for inhibition at 1 µM: Table 8, library procedure 43.

The mark [1] stands for this setting: at 1 pM, Table 7, library procedure 42.
[2] abbreviates: cells prefixed Ki, read-out: Met Ki.
[3] abbreviates: at 1 pM, Table 6, library procedure 41.
The mark [4] stands for this setting: Table 3, column 'Ki (μM) or I (%)': cells without % sign, read-out: Ki.

Each structure is given as a SMILES string. Read-outs that look alike come from different tables or passages of the source.

T1 sequence (P08581 974-1390 limits assumed): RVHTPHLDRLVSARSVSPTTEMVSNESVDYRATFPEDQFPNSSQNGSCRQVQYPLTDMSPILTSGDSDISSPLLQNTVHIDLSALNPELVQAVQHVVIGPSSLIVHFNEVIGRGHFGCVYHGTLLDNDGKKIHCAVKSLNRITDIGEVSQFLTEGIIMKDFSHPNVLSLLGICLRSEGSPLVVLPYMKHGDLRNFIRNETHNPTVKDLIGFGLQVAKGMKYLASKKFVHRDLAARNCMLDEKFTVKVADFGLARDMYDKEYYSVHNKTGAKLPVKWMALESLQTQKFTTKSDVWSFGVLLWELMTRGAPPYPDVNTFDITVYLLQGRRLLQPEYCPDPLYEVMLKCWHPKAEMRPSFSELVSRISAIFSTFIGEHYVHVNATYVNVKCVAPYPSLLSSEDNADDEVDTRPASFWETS

With `Nc1ncc(-c2ccc(C(=O)N3CCC(N4CCCC4)CC3)cc2)cc1OCc1ccc(C(=O)NCc2ccccn2)cc1`, under setting [1], the inhibition at 1 pM worked out at 7%.

With `COc1cc(CNC(=O)c2ccc(-c3cnc(N)c(OC(C)c4c(Cl)ccc(F)c4Cl)c3)cc2)ccc1O` [Example L-22], the inhibition at 0.05 µM stood at 64%. Consider `CNC(=O)c1ccc(-c2cnc(N)c(OC(C)c3c(Cl)ccc(F)c3Cl)c2)cc1` [Example L-102], for which the inhibition at 0.05 µM amounted to 82%. Consider `CC(C)OCCCNC(=O)c1ccc(-c2cnc(N)c(OC(C)c3c(Cl)ccc(F)c3Cl)c2)cc1` [Example L-116], for which the inhibition at 0.05 µM is 62%. Take `Cc1cccc(COc2cc(-c3ccc(C(=O)N4CCC(N5CCCC5)CC4)cc3)cnc2N)n1`: the inhibition at 1 pM under setting [1] came to 17%.

In the case of `Nc1ncc(-c2ccc(C(=O)N3CCC(N4CCCC4)CC3)cc2)cc1OCc1cc(F)c(F)c(F)c1`, under setting [1], the inhibition at 1 pM was 19%. As to `CCOC(=O)c1nc(COc2cc(-c3ccc(C(=O)N4CC(C)NC(C)C4)cc3)cnc2N)no1` (stereo not shown), the inhibition at 1 µM is 13%. As for `CC1CN(C(=O)c2ccc(-c3cnc(N)c(OCc4nccn4C)c3)cc2)CC(C)N1` (stereo not shown), the inhibition at 1 µM turned out to be 12%. Take `Nc1ncc(-c2ccc(C(=O)N3CCC(N4CCCC4)CC3)cc2)cc1OCc1ccc(Cl)s1`: the inhibition at 1 pM under setting [1] is 19%. Take `COc1ccccc1-c1nc(COc2cc(-c3ccc(C(=O)N4CC(C)NC(C)C4)cc3)cnc2N)no1` (stereo not shown): the inhibition at 1 µM worked out at 9%. As to `CC(Oc1cc(-c2ccc(C(=O)N[C@@H]3CCN(Cc4ccccc4)C3)cc2)cnc1N)c1c(Cl)ccc(F)c1Cl` (stereo partly drawn) [Example L-15], the inhibition at 0.05 µM was 67%.

With `CC1CN(C(=O)c2ccc(-c3cnc(N)c(OCc4ccc(F)c(F)c4)c3)cc2)CC(C)N1` (stereo not shown), the inhibition at 1 µM stood at 14%. Turning to `Nc1ncc(C(=O)N2CCC(=O)CC2)cc1OCc1c(Cl)cccc1Cl` [Example L-232], the inhibition at 1 pM was 44%. On to `Nc1ncc(-c2ccc(C(=O)N3CCC(N4CCCC4)CC3)cc2)cc1OCc1cccc(OC(F)(F)F)c1`, for which, under setting [1], the inhibition at 1 pM was found to be 13%.

On to `CCN(CCO)C(=O)c1ccc(-c2cnc(N)c(OC(C)c3c(Cl)ccc(F)c3Cl)c2)cc1` [Example L-62], for which the inhibition at 0.05 µM amounted to 94%. On to `CC1CN(C(=O)c2ccc(-c3cnc(N)c(OCc4ccccc4OC(F)F)c3)cc2)CC(C)N1` (stereo not shown), for which the inhibition at 1 µM was found to be 24%. For the molecule `Nc1ncc(-c2ccc(C(=O)N3CCC(N4CCCC4)CC3)cc2)cc1OCc1cc(Cl)ccc1Cl`, the inhibition at 1 pM under setting [1] was 26%.

As for `C[C@H](Oc1cc(-c2ccc(C(=O)N[C@H](C)C3CCCCC3)cc2)cnc1N)c1c(Cl)ccc(F)c1Cl` [Example L-83], the inhibition at 0.05 µM is 54%. For `Cn1ccnc1COc1cc(-c2ccc(C(=O)N3CCC(N4CCCC4)CC3)cc2)cnc1N`, the inhibition at 1 pM under setting [1] is 14%. Take `CC(Oc1cc(-c2cnn(CCN(C(C)C)C(C)C)c2)cnc1N)c1c(Cl)ccc(F)c1Cl` (stereo not shown) [Example I-466, 3-[1-(2,6-Dichloro-3-fluoro-phenyl)-ethoxy]-5-[1-(2-diisopropylamino-ethyl)-1H-pyrazol-4-yl]-pyridin-2-yl amine]: the Ki under setting [2] came to 0.47 µM. With `CC(Oc1cc(-c2ccc(C(=O)NCCCO)cc2)cnc1N)c1c(Cl)ccc(F)c1Cl` [Example L-5], the inhibition at 0.05 µM amounted to 68%. Take `Nc1ncc(C(=O)NCc2ccc(OC(F)F)cc2)cc1OCc1c(Cl)cccc1Cl` [Example L-305]: the inhibition at 1 pM under setting [3] was determined as 26%.

As for `CC1CN(C(=O)c2ccc(-c3cnc(N)c(OCc4cc(F)cc(F)c4)c3)cc2)CC(C)N1` (stereo not shown), the inhibition at 1 µM came to 12%. On to `Nc1ncc(-c2ccc(C(=O)N3CCC(N4CCCC4)CC3)cc2)cc1OCc1cccc(Cl)c1F`, for which, under setting [1], the inhibition at 1 pM was found to be 28%. For the molecule `Nc1ncc(-c2ccc(C(=O)N3CCC(N4CCCC4)CC3)cc2)cc1OCc1cc(F)c(F)cc1F`, the inhibition at 1 pM under setting [1] was 12%.

On to `COc1ccc(C(NC(=O)c2cnc(N)c(OCc3c(Cl)cccc3Cl)c2)C2CC2)cc1` [Example L-208], for which the inhibition at 1 pM under setting [3] is 27%. Take `Nc1ncc(-c2ccc(C(=O)N3CCC(N4CCCC4)CC3)cc2)cc1OCc1ccc(Cl)cc1`: under setting [1], the inhibition at 1 pM stood at 15%. With `CC1CN(C(=O)c2ccc(-c3cnc(N)c(OCc4ccc(C(=O)NCCN5CCCC5)cc4)c3)cc2)CC(C)N1` (stereo not shown), the inhibition at 1 µM is 12%.

With `Cc1cccc(COc2cc(-c3ccc(C(=O)N4CC(C)NC(C)C4)cc3)cnc2N)c1F` (stereo not shown), the inhibition at 1 µM amounted to 28%. `N#Cc1ccccc1-c1ccc(COc2cc(-c3ccc(C(=O)N4CCC(N5CCCC5)CC4)cc3)cnc2N)cc1`: the inhibition at 1 pM under setting [1] was found to be 77%.

In the case of `CC(Oc1cc(-c2ccc(OCC(=O)N3CC[C@@H](O)C3)cc2)cnc1N)c1c(Cl)ccc(F)c1Cl` (stereo partly drawn) [Example I-478, 2-(4-{6-Amino-5-[1-(2,6-dichloro-3-fluoro-phenyl)-ethoxy]-pyridin-3-yl}-phenoxy)-1-((R)-3-hydroxy-pyrrolidin-1-yl)-ethanone], the Ki under setting [2] turned out to be 0.041 µM.

For the molecule `COCCN1CCN(C(=O)c2ccc(-c3cnc(N)c(OC(C)c4c(Cl)ccc(F)c4Cl)c3)cc2)CC1` [Example L-135], the inhibition at 0.05 µM turned out to be 76%. On to `CC(Oc1cc(-c2ccc(N(C)C)cc2)cnc1N)c1c(Cl)ccc(F)c1Cl` (stereo not shown) [Example I-645, 3-[1-(2,6-Dichloro-3-fluoro-phenyl)-ethoxy]-5-(4-dimethylamino-phenyl)-pyridin-2-ylamine], for which the inhibitory constant (Ki) under setting [4] is 0.157 µM.

As to `CC(Oc1cc(-c2ccc(C(=O)N3CCC(Oc4ccccc4)CC3)cc2)cnc1N)c1c(Cl)ccc(F)c1Cl` [Example L-151], the inhibition at 0.05 µM is 58%. As to `COC1CCN(C(=O)c2ccc(-c3cnc(N)c(OC(C)c4c(Cl)ccc(F)c4Cl)c3)cc2)CC1` [Example L-169], the inhibition at 0.05 µM came to 79%. As for `Cc1ccc(F)cc1COc1cc(-c2ccc(C(=O)N3CCC(N4CCCC4)CC3)cc2)cnc1N`, the inhibition at 1 pM under setting [1] was 29%. Take `Nc1ncc(C(=O)N2CCC(CCO)CC2)cc1OCc1c(Cl)cccc1Cl` [Example L-258]: the inhibition at 1 pM under setting [3] was 45%. As for `Nc1ncc(-c2ccc(C(=O)N3CCC(N4CCCC4)CC3)cc2)cc1OCc1ccccc1-c1ccccc1`, the inhibition at 1 pM under setting [1] amounted to 22%.

With `Cc1[nH]cnc1COc1cc(-c2ccc(C(=O)N3CCC(N4CCCC4)CC3)cc2)cnc1N`, under setting [1], the inhibition at 1 pM is 12%.

In the case of `Nc1ncc(C(=O)NCCc2c[nH]cn2)cc1OCc1c(Cl)cccc1Cl` [Example L-185], the inhibition at 1 pM under setting [3] was determined as 29%.

Consider `Nc1ncc(-c2ccc(C(=O)N3CCC(N4CCCC4)CC3)cc2)cc1OCc1cccc(F)c1F`, for which, under setting [1], the inhibition at 1 pM amounted to 24%.

Regarding `CC(Oc1cc(-c2ccc(C(=O)N3C[C@@H](C)N[C@@H](C)C3)c(Cl)c2)cnc1N)c1c(Cl)ccc(F)c1Cl` (stereo partly drawn) [Example I-569, (4-{6-Amino-5-[1-(2,6-dichloro-3-fluoro-phenyl)-ethoxy]-pyridin-3-yl}-2-chloro-phenyl)-((3R,5S)-dimethyl-piperazin-1-yl)-methanone], under setting [4], the Ki amounted to 0.0478 µM. With `CC(Oc1cc(C#CC(C)(C)NC(=O)N2CCC(N3CCCC3)CC2)cnc1N)c1c(Cl)ccc(F)c1Cl` (stereo not shown) [Example I-438, 4-Pyrrolidin-1-yl-pipendine-1-carboxylic acid (3-{6-amino-5-[1-(2,6-dichloro-3-fluoro-phenyl)-ethoxy]-pyridin-3-yl}-1,1-dimethyl-prop-2-ynyl)-amide], the Ki under setting [2] stood at 0.72 µM.

For the molecule `CN(C)CC(C)(C)CNC(=O)c1cnc(N)c(OCc2c(Cl)cccc2Cl)c1` [Example L-191], under setting [3], the inhibition at 1 pM amounted to 38%. Turning to `Nc1ncc(C(=O)NCC2=CSC3=NCCN23)cc1OCc1c(Cl)cccc1Cl` [Example L-292], the inhibition at 1 pM under setting [3] is 99%. For the molecule `Cc1ccc(N2CCN(CCCCNC(=O)c3cnc(N)c(OCc4c(Cl)cccc4Cl)c3)CC2)cc1` [Example L-268], the inhibition at 1 pM under setting [3] is 15%.

In the case of `CC(Oc1cc(-c2ccc(OCCN3CCCC3)cc2)cnc1N)c1cccc(F)c1Cl` (stereo not shown) [Example I-487, 3-[1-(2-Chloro-3-fluoro-phenyl)-ethoxy]-5-[4-(2-pyrrolidin-1-yl-ethoxy)-phenyl]-pyridin-2-ylamine], the Ki under setting [2] is 3.3 µM. Regarding `Nc1ncc(-c2ccc(C(=O)N3CCC(N4CCCC4)CC3)cc2)cc1OCc1cccc(C(=O)Nc2cccnc2)c1`, the inhibition at 1 pM under setting [1] amounted to 10%.

For `COc1cc(COc2cc(-c3ccc(C(=O)N4CCC(N5CCCC5)CC4)cc3)cnc2N)cc(OC)c1OC`, the inhibition at 1 pM under setting [1] is 10%. `CC(Oc1cc(-c2ccc(C(=O)NCCc3nc(-c4ccncc4)c[nH]3)cc2)cnc1N)c1c(Cl)ccc(F)c1Cl` [Example L-166]: the inhibition at 0.05 µM is 67%. Take `CC(O)CNC(=O)c1cnc(N)c(OCc2c(Cl)cccc2Cl)c1` [Example L-214]: the inhibition at 1 pM under setting [3] amounted to 49%. In the case of `CN(C)C(CNC(=O)c1cnc(N)c(OCc2c(Cl)cccc2Cl)c1)c1cccnc1` [Example L-295], under setting [3], the inhibition at 1 pM was determined as 18%. Consider `Nc1ncc(-c2ccc(C(=O)N3CCC(N4CCCC4)CC3)cc2)cc1OCc1nc(N)c2ccccc2n1`, for which, under setting [1], the inhibition at 1 pM amounted to 15%.

For `COc1cc(CCNC(=O)c2cnc(N)c(OCc3c(Cl)cccc3Cl)c2)ccc1O` [Example L-233], the inhibition at 1 pM under setting [3] was determined as 32%. Turning to `CC(C)NC(=O)CN1CCN(C(=O)c2cnc(N)c(OCc3c(Cl)cccc3Cl)c2)CC1` [Example L-201], under setting [3], the inhibition at 1 pM is 30%. Consider `CC(Oc1cc(-c2ccc(C(=O)NCC3(O)CCCCC3)cc2)cnc1N)c1c(Cl)ccc(F)c1Cl` [Example L-59], for which the inhibition at 0.05 µM worked out at 81%. In the case of `Nc1ncc(C(=O)N2CCCC(N3CCOCC3)CC2)cc1OCc1c(Cl)cccc1Cl` [Example L-335], under setting [3], the inhibition at 1 pM was determined as 18%. Consider `Cc1cc(-c2onc(C)c2COc2cc(-c3ccc(C(=O)N4CC(C)NC(C)C4)cc3)cnc2N)no1` (stereo not shown), for which the inhibition at 1 µM was 25%. As to `CC1CN(C(=O)c2ccc(-c3cnc(N)c(OCc4ccc(C(=O)NCCc5ccccn5)cc4)c3)cc2)CC(C)N1` (stereo not shown), the inhibition at 1 µM was 19%. In the case of `Nc1ncc(-c2ccc(C(=O)N3CCC(N4CCCC4)CC3)cc2)cc1OCc1nc2cc(C(F)(F)F)ccc2s1`, the inhibition at 1 pM under setting [1] came out at 34%. For the molecule `Cn1nc(-c2ccccc2)nc1COc1cc(-c2ccc(C(=O)N3CCC(N4CCCC4)CC3)cc2)cnc1N`, the inhibition at 1 pM under setting [1] is 5%.

For orientation: inhibition means the share of the control response that was lost under treatment. The term Ki denotes the dissociation constant of the complex between target and ligand, obtained from inhibition or displacement.
